{"source": "patent US9724355B2", "about": "“Fulvestrant compositions and methods of use” (SHIMODA BIOTECH (PTY) LTD, priority 2010, dated 2017)", "assay": "Fulvestrant aqueous solubility in the presence and absence of cyclodextrins (excess drug, shaken 24 h, filtered, HPLC)", "assay_type": "physicochemical", "settings": "for Quantity of Fulvestrant Diluted Run 1 / Quantity of Fulvestrant Diluted Run 2 / Average Concentration: diluted sample; for solubility at 24 h: 22 °C", "method": "The HPLC system used for the chromatographic determination of fulvestrant consisted of a Waters 600E quaternary gradient pump, a Waters 717plus WISP auto-sampler and a Waters 2487 Dual A, Absorbance detector. Separation was performed using a Phenomenex Luna C18 column (250×4.6 mm; 5 urn) (Phenomenex, Torrance, Calif.) (supplied by Separations, South Africa) and a mobile phase consisting of 50% MeCN:22.5% ddH2O :27.5% MeOH. The mobile phase was degassed and filtered prior to use. […] Sample run times were 15 minutes. The UV detector wavelength was set to 280 nm.\n1 mL of each of the following aqueous solutions was prepared containing 0; 25; 50; 75 and 100 mg/mL ACD in ddHiO. Excess fulvestrant was added to each of these solutions and the samples were shaken for 24 hours on an orbital shaker at 200 rpm and at 22° C. room temperature. Excess fulvestrant was present in all samples at all times. After 24-hours, the samples were filtered through 0.45 μm syringe tip filters, diluted according to requirements and assayed by HPLC.\n1 mL of each of the following aqueous solutions was prepared containing 0; 5; 7.5; 10 and 15 mg/mL BCD in ddH2O. Excess fulvestrant was added to each of these solutions and the samples were shaken for 24 hours on an orbital shaker at 200 rpm and at 22° C. room temperature. Excess fulvestrant was present in all samples at all times. After 24-hours, the samples were filtered through 0.45 μm syringe tip filters, diluted according to requirements and assayed by HPLC.\n1 mL of each of the following aqueous solutions was prepared containing 0; 50; 100; 150; 200; 250; 300; 350 and 400 mg/mL MBCD in ddH2O. Excess fulvestrant was added to each of these solutions and the samples were shaken for 24 hours on an orbital shaker at 200 rpm and at 22° C. room temperature. Excess fulvestrant was present in all samples at all times. After 24-hours, the samples were filtered through 0.45 μm syringe tip filters, diluted according to requirements and assayed by HPLC.\n1 mL of each of the following aqueous solutions was prepared containing 0; 50; 100; 150; 200; 250; 300; 350 and 400 mg/mL HPBCD in ddH2O. Excess fulvestrant was added to each of these solutions and the samples were shaken for 24 hours on an orbital shaker at 200 rpm and at 22° C. room temperature. Excess fulvestrant was present in all samples at all times. After 24-hours, the samples were filtered through 0.45 μm syringe tip filters, diluted according to requirements and assayed by HPLC.\n1 mL of each of the following aqueous solutions was prepared containing 0; 50; 100; 150; 200; 250; 300; 350 and 400 mg/mL SBEBCD in ddH2O. Excess fulvestrant was added to each of these solutions and the samples were shaken for 24 hours on an orbital shaker at 200 rpm and at 22° C. room temperature. Excess fulvestrant was present in all samples at all times. After 24-hours, the samples were filtered through 0.45 μm syringe tip filters, diluted according to requirements and assayed by HPLC.\n1 mL of each of the following aqueous solutions was prepared containing 0; 50; 100; 150; and 200 mg/mL GCD in ddHO. Excess fulvestrant was added to each of these solutions and the samples were shaken for 24 hours on an orbital shaker at 200 rpm and at 22° C. room temperature. Excess fulvestrant was present in all samples at all times. After 24-hours, the samples were filtered through 0.45 μm syringe tip filters, diluted according to requirements and assayed by HPLC.\n1 mL of each of the following aqueous solutions was prepared containing 0; 50; 100; 150; 200; 250; 300; 350 and 400 mg/mL HPGCD in ddH2O. Excess fulvestrant was added to each of these solutions and the samples were shaken for 24 hours on an orbital shaker at 200 rpm and at 22° C. room temperature. Excess fulvestrant was present in all samples at all times. After 24-hours, the samples were filtered through 0.45 μm syringe tip filters, diluted according to requirements and assayed by HPLC.", "note": "Where two headings read alike, the source gives them in different places."}
{"smiles": "C[C@]12CC[C@@H]3c4ccc(O)cc4C[C@@H](CCCCCCCCC[S+]([O-])CCCC(F)(F)C(F)(F)F)[C@H]3[C@@H]1CC[C@@H]2O", "note": "(stereo partly drawn) [Fulvestrant, 7-alpha-[9-(4,4,5,5,5-pentafluoropentylsulphinyl)nonyl]estra-1,3,5-(10)-triene-3,17-beta-diol]", "values": [{"measurement": "Quantity of Fulvestrant Diluted Run 1", "setting": "300 mg/mL HPBCD", "value": 164.70, "unit": "µg/mL"}, {"measurement": "Quantity of Fulvestrant Diluted Run 2", "setting": "300 mg/mL HPBCD", "value": 166.54, "unit": "µg/mL"}, {"measurement": "True Fulvestrant Concentration", "setting": "300 mg/mL HPGCD in ddH2O, 22° C., 24 h", "value": 0.603, "unit": "mg/mL"}, {"measurement": "Average Concentration", "setting": "300 mg/mL HPGCD", "value": 392.50, "unit": "µg/mL"}, {"measurement": "Quantity of Fulvestrant Diluted Run 1", "setting": "300 mg/mL HPGCD", "value": 400.24, "unit": "µg/mL"}, {"measurement": "Quantity of Fulvestrant Diluted Run 2", "setting": "300 mg/mL HPGCD", "value": 384.76, "unit": "µg/mL"}, {"measurement": "True Fulvestrant Concentration", "setting": "300 mg/mL MBCD in ddH2O, 22° C., 24 h", "value": 22.673, "unit": "mg/mL"}, {"measurement": "Average Concentration", "setting": "300 mg/mL MBCD", "value": 226.73, "unit": "µg/mL"}, {"measurement": "Quantity of Fulvestrant Diluted Run 1", "setting": "300 mg/mL MBCD", "value": 226.52, "unit": "µg/mL"}, {"measurement": "Quantity of Fulvestrant Diluted Run 2", "setting": "300 mg/mL MBCD", "value": 226.94, "unit": "µg/mL"}, {"measurement": "True Fulvestrant Concentration", "setting": "300 mg/mL SBEBCD in ddH2O, 22° C., 24 h", "value": 0.852, "unit": "mg/mL"}, {"measurement": "Average Concentration", "setting": "300 mg/mL SBEBCD", "value": 425.89, "unit": "µg/mL"}, {"measurement": "Quantity of Fulvestrant Diluted Run 1", "setting": "300 mg/mL SBEBCD", "value": 425.82, "unit": "µg/mL"}, {"measurement": "Quantity of Fulvestrant Diluted Run 2", "setting": "300 mg/mL SBEBCD", "value": 425.96, "unit": "µg/mL"}, {"measurement": "True Fulvestrant Concentration", "setting": "350 mg/mL HPBCD in ddH2O, 22° C., 24 h", "value": 4.305, "unit": "mg/mL"}, {"measurement": "Average Concentration", "setting": "350 mg/mL HPBCD", "value": 215.26, "unit": "µg/mL"}, {"measurement": "Quantity of Fulvestrant Diluted Run 1", "setting": "350 mg/mL HPBCD", "value": 215.41, "unit": "µg/mL"}, {"measurement": "Quantity of Fulvestrant Diluted Run 2", "setting": "350 mg/mL HPBCD", "value": 215.10, "unit": "µg/mL"}, {"measurement": "True Fulvestrant Concentration", "setting": "350 mg/mL HPGCD in ddH2O, 22° C., 24 h", "value": 0.802, "unit": "mg/mL"}, {"measurement": "Average Concentration", "setting": "350 mg/mL HPGCD", "value": 502.97, "unit": "µg/mL"}, {"measurement": "Quantity of Fulvestrant Diluted Run 1", "setting": "350 mg/mL HPGCD", "value": 500.71, "unit": "µg/mL"}, {"measurement": "Quantity of Fulvestrant Diluted Run 2", "setting": "350 mg/mL HPGCD", "value": 505.22, "unit": "µg/mL"}, {"measurement": "True Fulvestrant Concentration", "setting": "350 mg/mL MBCD in ddH2O, 22° C., 24 h", "value": 29.275, "unit": "mg/mL"}, {"measurement": "Average Concentration", "setting": "350 mg/mL MBCD", "value": 292.75, "unit": "µg/mL"}, {"measurement": "Quantity of Fulvestrant Diluted Run 1", "setting": "350 mg/mL MBCD", "value": 293.21, "unit": "µg/mL"}, {"measurement": "Quantity of Fulvestrant Diluted Run 2", "setting": "350 mg/mL MBCD", "value": 292.29, "unit": "µg/mL"}, {"measurement": "True Fulvestrant Concentration", "setting": "350 mg/mL SBEBCD in ddH2O, 22° C., 24 h", "value": 1.140, "unit": "mg/mL"}, {"measurement": "Average Concentration", "setting": "350 mg/mL SBEBCD", "value": 379.96, "unit": "µg/mL"}, {"measurement": "Quantity of Fulvestrant Diluted Run 1", "setting": "350 mg/mL SBEBCD", "value": 382.24, "unit": "µg/mL"}, {"measurement": "Quantity of Fulvestrant Diluted Run 2", "setting": "350 mg/mL SBEBCD", "value": 377.67, "unit": "µg/mL"}, {"measurement": "True Fulvestrant Concentration", "setting": "400 mg/mL HPBCD in ddH2O, 22° C., 24 h", "value": 5.473, "unit": "mg/mL"}, {"measurement": "Average Concentration", "setting": "400 mg/mL HPBCD", "value": 273.67, "unit": "µg/mL"}, {"measurement": "Quantity of Fulvestrant Diluted Run 1", "setting": "400 mg/mL HPBCD", "value": 275.20, "unit": "µg/mL"}, {"measurement": "Quantity of Fulvestrant Diluted Run 2", "setting": "400 mg/mL HPBCD", "value": 272.14, "unit": "µg/mL"}, {"measurement": "True Fulvestrant Concentration", "setting": "400 mg/mL HPGCD in ddH2O, 22° C., 24 h", "value": 1.061, "unit": "mg/mL"}, {"measurement": "Average Concentration", "setting": "400 mg/mL HPGCD", "value": 468.43, "unit": "µg/mL"}, {"measurement": "Quantity of Fulvestrant Diluted Run 1", "setting": "400 mg/mL HPGCD", "value": 486.39, "unit": "µg/mL"}, {"measurement": "Quantity of Fulvestrant Diluted Run 2", "setting": "400 mg/mL HPGCD", "value": 450.47, "unit": "µg/mL"}, {"measurement": "True Fulvestrant Concentration", "setting": "400 mg/mL MBCD in ddH2O, 22° C., 24 h", "value": 35.892, "unit": "mg/mL"}, {"measurement": "Average Concentration", "setting": "400 mg/mL MBCD", "value": 358.92, "unit": "µg/mL"}, {"measurement": "Quantity of Fulvestrant Diluted Run 1", "setting": "400 mg/mL MBCD", "value": 359.13, "unit": "µg/mL"}, {"measurement": "Quantity of Fulvestrant Diluted Run 2", "setting": "400 mg/mL MBCD", "value": 358.71, "unit": "µg/mL"}, {"measurement": "True Fulvestrant Concentration", "setting": "400 mg/mL SBEBCD in ddH2O, 22° C., 24 h", "value": 1.507, "unit": "mg/mL"}, {"measurement": "Average Concentration", "setting": "400 mg/mL SBEBCD", "value": 502.17, "unit": "µg/mL"}, {"measurement": "Quantity of Fulvestrant Diluted Run 1", "setting": "400 mg/mL SBEBCD", "value": 503.13, "unit": "µg/mL"}, {"measurement": "Quantity of Fulvestrant Diluted Run 2", "setting": "400 mg/mL SBEBCD", "value": 501.21, "unit": "µg/mL"}, {"measurement": "solubility at 24 h", "setting": "aqueous cyclodextrin solution, aqueous with cosolvent or surfactant or cyclodextrin, thermodynamic from solid, enhancement with ACD, SBEBCD and HPGCD, read-out: fulvestrant aqueous solubilities", "value": "1000 to 2000", "unit": "µg/mL"}, {"measurement": "solubility at 24 h", "setting": "aqueous cyclodextrin solution, aqueous with cosolvent or surfactant or cyclodextrin, thermodynamic from solid, in 400 mg/mL HPBCD, read-out: aqueous solubility of fulvestrant", "value": 5500, "unit": "µg/mL"}, {"measurement": "solubility at 24 h", "setting": "aqueous cyclodextrin solution, aqueous with cosolvent or surfactant or cyclodextrin, thermodynamic from solid, in 400 mg/mL MBCD, read-out: fulvestrant aqueous solubility", "value": 35900, "unit": "µg/mL"}, {"measurement": "solubility thermodynamic at 24 h", "setting": "water (ddH2O) without cyclodextrin, water, thermodynamic from solid, 0 mg/mL SBEBCD in ddH2O, 22° C., 24 h, read-out: True Fulvestrant Concentration", "value": "< 10", "unit": "µg/mL"}, {"measurement": "solubility at 24 h", "setting": "water (ddH2O), water, thermodynamic from solid, absence of cyclodextrin, read-out: aqueous solubility of fulvestrant", "value": "< 10", "unit": "µg/mL"}]}
